According to patent publication US9533973B2, “Allosteric modulators of 5-hydroxytryptamine 2C receptor (5-HT2CR)” (THE BOARD OF REGENTS OF THE UNIVERSITY OF TEXAS SYSTEM, priority 2011, dated 2017):

Columns and labels:
[1] = target: T1, 5-HT2CR (Homo sapiens, UniProt P28335); assay: 5-HT induced intracellular calcium (Cai++) release assay in live 5-HT2CR-CHO cells; format: cell-based; parameters: expressed in transfected cells
T1 sequence (P28335 33-458): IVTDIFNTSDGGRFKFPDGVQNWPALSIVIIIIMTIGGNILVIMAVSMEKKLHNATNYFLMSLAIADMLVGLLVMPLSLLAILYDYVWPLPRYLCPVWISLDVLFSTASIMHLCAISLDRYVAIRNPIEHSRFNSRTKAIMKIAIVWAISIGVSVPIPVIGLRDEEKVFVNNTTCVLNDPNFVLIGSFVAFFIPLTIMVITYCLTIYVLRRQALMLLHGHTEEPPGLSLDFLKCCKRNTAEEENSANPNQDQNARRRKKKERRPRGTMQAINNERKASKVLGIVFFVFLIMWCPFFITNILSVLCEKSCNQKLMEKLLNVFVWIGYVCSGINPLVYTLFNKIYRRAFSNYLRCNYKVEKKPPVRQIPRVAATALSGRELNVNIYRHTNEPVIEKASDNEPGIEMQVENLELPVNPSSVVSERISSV
Description: Selected results for the biological characterization of the synthesized compounds can be found in Ding et al., ACS Chem. Neurosci., 3, 538-545, 2012, and also described herein. The biological activity is assessed using an intracellular calcium (Cai^++) release assay. The best-characterized intracellular signaling pathway of the 5-HT2CR is the activation of phospholipase C (PLCβ) via Gαq/11 proteins and the production of diacylglycerol (DAG) and inositol-1,4,5-trisphosphate (IP3), leading to increased Cai^++ release from intracellular stores (Berg et al., Neuropharmacology 55, 969-76, 2008). Functional characterization of our synthetic PNU-69176E (CYD-1-78-2) and its diastereomer CYD-1-78-1 was determined by utilizing an Cai^++ release assay in live cells in which Cai^++ levels can be regarded as an outcome measure of activation of the 5-HT2CR signaling pathway (Berg et al., Neuropharmacology 55, 969-76, 2008). […] In addition, 1 nM of compound CYD-1-78-2 enhanced the Cai^++ response at low concentrations of 5-HT [10^11-3×10^−10 M; F(15,55)=16.73, p<0.01; FIG. 2]. […] Neither compound CYD-1-78-2 [F(10,68)=0.81, n.s.] nor the diastereomer CYD-1-78-1 [F(10,34)=0.76, n.s.] in concentrations up to 10^−5 M induced Cai^++ release in the 5-HT2CR—CHO cells in the absence of 5-HT (FIG. 3). This profile for compounds CYD-1-78-2 and −1 in 5-HT2CR—CHO cells was distinguished from that seen in 5-HT2AR—CHO cells in which neither compound alone or in the presence of 5-HT (compound CYD-1-78-1, F(10,43)=0.78; compound CYD-1-78-2, F(10,55)=1.27; FIG. 4) altered Cai^++ release (Ding et al., ACS Chem. Neurosci. 3, 538-545, 2012).
The Chinese hamster ovary (CHO) cell line stably transfected with 5-HT2CR was a generous gift of K. Berg and W. Clarke (University of Texas Health Science Center, San Antonio) (K. A. Berg, W. P. Clarke, C. Sailstad, A. Saltzman and S. Maayani, Mol. Pharmacol. 1994, 46 (3), 477-484; Ding et al., ACS Chem. Neurosci. 3, 538-545, 2012). Cells were grown at 37° C., 5% CO2 and 85% relative humidity in GlutaMax α-MEM (Invitrogen, Carlsbad Calif.), 5% fetal bovine serum (Atlanta Biologicals, Atlanta Ga.), 100 μg/mL hygromycin (Mediatech, Manassas Va.) and were passaged when they reached 80% confluence.
Changes in Cai^++ levels were determined using the calcium sensitive dye Calcium 4 (FLIPR No-wash kit, Molecular Devices, Sunnyvale, Calif., part #R8142). Cells were plated in serum-replete medium at 20,000 cells/well in black-sided, clear bottom 96-well tissue culture plates and were fed ˜24 hrs later with serum-free medium. Following overnight incubation, medium was removed and replaced with 40 μL of fresh serum-free medium plus 40 μL Calcium 4 dye solution in Hank's balanced saline solution (HBSS, without CaCl2 or MgCl2) supplemented with 2.5 mM water soluble probenicid (Invitrogen) to inhibit extracellular transport of the dye. Plates were incubated for 60 min at 37° C. and 60 min at room temperature in the dark. Fluorescence (λex=485 nm, λem=525 nm) was measured with a FlexStation3 (Molecular Devices). A baseline was established for each well during the initial segment of each run. Addition of 20 μL of 5× concentrated tested compound occurred at 17 sec and fluorescence was recorded every 1.7 sec for 90 sec to determine any innate agonist activity. This first round of 90 sec recordings provided a 20 min preincubation period. […] Maximum peak height was determined by the FlexStation software (SoftMax Pro 5.2) for each well and was normalized to vehicle control.

[2] = target: T1, 5-HT2CR; parameters: host or cells: stably transfected HEK293 cells (Im et al., Mol. Pharmacol. 64, 78-84, 2003); conditions: Im et al., 2003, cited from earlier work

Cai++ release induced by 0.3 nM 5-HT in presence of compound ([1]; 0.3 nM 5-HT (~EC20) alone gives 23.9%, 5-HTmax determined at 1 μM 5-HT): 48.5 % of 5-HTmax | effect on Cai++ release induced by 0.3 nM 5-HT ([1]; 0.3 nM 5-HT, 5-HT2CR-CHO cells): potentiated | concentrations that significantly enhanced Cai++ release above that of 0.3 nM 5-HT alone ([1]; 0.3 nM 5-HT, Dunnett's, p<0.05): 10^−13-10^−7 M | effect of 1 nM compound on Cai++ response at low concentrations of 5-HT ([1]; 1 nM compound, 5-HT 10^11-3×10^−10 M): enhanced | effect on Cai++ release at the highest concentration utilized ([1]; 10^−5 M compound, 0.3 nM 5-HT, p<0.05): reduced
SMILES: CCCCCCCCCCC[C@@H]1CCN[C@H](C(=O)N[C@@H]([C@H]2O[C@H](SC)[C@H](O)[C@@H](O)[C@H]2O)[C@H](C)Cl)C1.Cl [CYD-1-78-2]
Cai++ release in the absence of 5-HT (intrinsic agonist activity) ([1]; concentrations up to 10^−5 M, no 5-HT): n.s. and did not detect intrinsic agonist activity | intrinsic activation of GTPγS binding and IP3 release/[3H]IP accumulation in the absence of 5-HT ([2]; HEK293 cell line (~45 pmol/mg protein)): detected intrinsic activation | concentrations giving positive allosteric modulation in the presence of 5-HT [2]: less than 10 μM | modulation at higher concentrations in the presence of 5-HT ([2]; concentrations above 10 μM): negative allosteric modulation
